{
  "source": "paper PMC6009888",
  "about": "“Design, synthesis, and pharmacological evaluation of 2-amino-5-nitrothiazole derived semicarbazones as dual inhibitors of monoamine oxidase and cholinesterase: effect of the size of aryl binding site” (Journal of Enzyme Inhibition and Medicinal Chemistry, 2017)",
  "key": {"MAO-A": {"target": "T1, MAO-A (Rattus norvegicus, UniProt P21396)", "T1 construct": "employing crude rat brain mitochondrial suspension; from tissue; host or cells: brain mitochondria of adult Wistar rats", "T1 sequence (P21396 1-526)": "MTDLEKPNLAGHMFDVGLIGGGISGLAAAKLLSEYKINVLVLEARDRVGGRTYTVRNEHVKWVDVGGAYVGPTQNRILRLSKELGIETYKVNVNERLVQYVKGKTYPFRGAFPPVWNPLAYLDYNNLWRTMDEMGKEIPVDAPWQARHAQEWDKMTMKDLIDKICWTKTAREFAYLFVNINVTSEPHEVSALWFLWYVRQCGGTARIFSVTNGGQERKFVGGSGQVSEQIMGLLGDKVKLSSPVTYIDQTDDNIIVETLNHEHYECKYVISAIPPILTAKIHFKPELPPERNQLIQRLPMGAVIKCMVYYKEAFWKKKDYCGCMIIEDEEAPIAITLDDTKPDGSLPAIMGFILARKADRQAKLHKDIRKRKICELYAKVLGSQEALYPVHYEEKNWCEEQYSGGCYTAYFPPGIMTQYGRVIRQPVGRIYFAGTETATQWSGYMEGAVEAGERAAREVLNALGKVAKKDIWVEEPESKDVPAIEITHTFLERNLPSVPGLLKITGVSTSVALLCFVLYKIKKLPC", "test": "In vitro MAO-A inhibition assay (rat brain mitochondria, serotonin substrate)", "type": "biochemical", "details": "for IC50: rat brain mitochondria, serotonin substrate, mean ± SEM, triplicate", "method": "Rat brain mitochondria were used as a source of MAO isoforms. All operations were carried out at 4 °C[50]. Male and female adult Wistar rats weighing 200–220 g were decapitated. All brains were rapidly removed and homogenised with a Potter–Elvehjem homogeniser in cold 0.32 M sucrose and 50 mM Tris-HCl, pH 8.2 (10:1, v/w). The homogenate was centrifuged twice at 1000 g for 5 min at 4 °C. The resulting supernatant was centrifuged at 20,000 g for 20 min. The mitochondrial pellet obtained was suspended in 100 mM sodium phosphate buffer, pH 7.4 (4:1, v/w), fractionated in plastic vials to 500 µl samples and stored at −80 °C. Before use, mitochondria were diluted with 100 mM sodium phosphate buffer to give a working solution of 0.80 mg of protein per millilitre.\nThe experiments were carried out under all the suitable laboratory conditions. […] An aliquot was made to contain mixture of 55 µl mitochondrial suspension (0.80 mg of protein/ml), 90 µl 50 mM Tris-HCl buffer, pH 8.2 and 30 µl solubilising solution (control or inhibitor solution at five different concentrations). The reaction was initiated by adding 25 µl of serotonin (4 mM, substrate for MAO-A) and 25 µl benzylamine (0.1 M, substrate for MAO-B) for the determination of MAO-A and MAO-B activity, respectively. The mixture was incubated at 37 °C for 30 min and the reaction was stopped by the addition of 50 µl of 1 N HCl. The absorbance associated with the production of 5-hydroxyindolacetic acid was measured at 280 nm for the estimation of MAO-A while for MAO-B estimation, the absorbance was measured at 250 nm due to the formation of benzaldehyde. All the assays were performed in triplicate. Control experiments were carried out without inhibitor and blanks were run without mitochondrial suspension.\nData are expressed as mean ± standard error mean (SEM) of experiments performed in triplicate.\n(§1) 0, 15, 30 and 60 min at 37 °C in Tris-HCl buffer (50 mM, pH 8.2). […] The reactions were further incubated at 37 °C for a further 15 min and the residual enzyme activities were measured and the bar graphs were constructed. All measurements were carried out in triplicate and are expressed as mean ± SEM."}, "equine serum BuChE": {"target": "T2, equine serum BuChE (Equus caballus, UniProt P81908)", "T2 construct": "equine serum BuChE was used as enzyme; purchased Sigma-Aldrich; host or cells: equine serum", "T2 sequence (P81908 whole entry)": "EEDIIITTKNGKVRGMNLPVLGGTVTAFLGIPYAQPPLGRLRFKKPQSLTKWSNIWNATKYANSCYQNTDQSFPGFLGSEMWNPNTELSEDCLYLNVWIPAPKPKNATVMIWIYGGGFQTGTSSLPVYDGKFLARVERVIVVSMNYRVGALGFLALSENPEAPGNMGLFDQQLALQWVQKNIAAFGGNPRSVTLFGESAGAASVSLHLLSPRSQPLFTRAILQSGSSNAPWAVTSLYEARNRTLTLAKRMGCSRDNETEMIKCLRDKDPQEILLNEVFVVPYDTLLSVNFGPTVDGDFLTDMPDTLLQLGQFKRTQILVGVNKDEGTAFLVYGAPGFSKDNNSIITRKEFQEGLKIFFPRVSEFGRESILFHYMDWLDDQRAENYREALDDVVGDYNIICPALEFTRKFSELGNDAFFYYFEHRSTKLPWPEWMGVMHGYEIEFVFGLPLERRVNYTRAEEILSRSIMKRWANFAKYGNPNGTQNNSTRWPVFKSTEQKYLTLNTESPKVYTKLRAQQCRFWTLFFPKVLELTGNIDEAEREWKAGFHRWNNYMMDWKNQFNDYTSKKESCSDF", "test": "In vitro BuChE inhibition assay (Ellman's method, equine serum BuChE)", "type": "biochemical", "method": "About 30 µl of enzyme sample (AChE) was added to 60 µl of 20 mM sodium phosphate buffer (pH 7.4) and were incubated in the presence of 30 µl of 10 mM DTNB solution with different concentrations of the test compounds. The enzyme reaction was initiated by the addition of 30 µl of 0.8 mM ACTI. The mixtures were incubated for 15 min at 25 °C. […] Control experiments were carried out without inhibitor, and blanks were run without AChE enzyme. All the assays were performed in triplicate. IC50 values were determined using the GraphPad Prism 5.0 (San Diego, CA) and the results were expressed as mean ± SEM.\nThe BuChE activity was assayed as per the procedure followed for AChE activity except that equine serum BuChE was used as enzyme and butyrylthiocholine iodide (BuTI) was used as substrate.\nas §1, with “25” for “37”, “sodium phosphate” for “Tris-HCl”, “(20” for “(50”, “7.4) and DTNB solution (10 mM).” for “8.2).”, “reaction was” for “reactions were”"}, "mice": {"test_system": "mice", "test": "Neurotoxicity screening (rotarod test)", "type": "in vivo", "details": "for Neurotoxicity (animals that exhibit toxicity / animals tested): 30 mg/kg i.p.; for Neurotoxicity (verdict in words): 30 mg/kg, relative to phenytoin", "method": "The neurotoxicity screening was undertaken according to the method followed by the National Institute of Health, using their reported procedures[55]^,[56]. Male albino mice (CF-1 strain or Swiss, 18–25 g) were used as experimental animals. The animals were housed in metabolic cages, and allowed free access to food and water. The test compounds were suspended in 0.5% methylcellulose/water mixture or in polyethylene glycol (PEG 200).\nMinimal motor impairment was measured in mice by the rotarod test. The mice were trained to stay on an accelerating rotarod that rotates at six revolutions per minute. The rod diameter was 3.2 cm. Trained animals were given i.p. injection of the selected inhibitors at a dose of 30 mg/kg. Neurotoxicity was indicated by the inability of the animal to maintain equilibrium on the rod for at least 1 min in each of the three trials."}, "[1]": {"details": "read-out: MAO-A In vitro IC50 (µM) ± SEM"}, "[2]": {"details": "equine serum BuChE, BuTI substrate, mean ± SEM, read-out: BuChE In vitro IC50 (µM) ± SEM"}},
  "note": "Where “and” joins values, the source holds several entries; their conditions need not be identical. Equal entries are not always repeated. Entries after “also recorded” stand apart in the source; their conditions may differ. Where two headings read alike, the source gives them in different places.",
  "data": [
    {"smiles": "CC(=NNC(=O)Nc1ncc([N+](=O)[O-])s1)c1ccc(Br)cc1", "note": "[Compound 4, 1-(1-(4-Bromophenyl)ethylidene)-4-(5-nitrothiazol-2-yl)semicarbazide]", "values": [
      {"measurement": "IC50", "setting": "MAO-A; [1]", "value": "< 100 µM and 70.2 µM"},
      {"measurement": "IC50", "setting": "equine serum BuChE; [2]", "value": "0.499 ± 0.003", "unit": "µM"},
      {"measurement": "Neurotoxicity (animals that exhibit toxicity / animals tested)", "setting": "mice; 0.5 h", "value": "0/4"},
      {"measurement": "Neurotoxicity (animals that exhibit toxicity / animals tested)", "setting": "mice; 1 h", "value": "0/4"},
      {"measurement": "Neurotoxicity (animals that exhibit toxicity / animals tested)", "setting": "mice; 2 h", "value": "0/4"},
      {"measurement": "Neurotoxicity (animals that exhibit toxicity / animals tested)", "setting": "mice; 4 h", "value": "0/4"},
      {"measurement": "Neurotoxicity (verdict in words)", "setting": "mice", "value": "non-neurotoxic"}
    ]},
    {"smiles": "CC(=NNC(=O)Nc1ncc([N+](=O)[O-])s1)c1ccc(Cl)cc1", "note": "[Compound 5, 1-(1-(4-Chlorophenyl)ethylidene)-4-(5-nitrothiazol-2-yl)semicarbazide]", "values": [
      {"measurement": "IC50", "setting": "MAO-A; [1]", "value": "4761 ± 10.8", "unit": "µM"},
      {"measurement": "IC50", "setting": "equine serum BuChE; [2]", "value": "0.553 ± 0.038", "unit": "µM"},
      {"measurement": "Neurotoxicity (animals that exhibit toxicity / animals tested)", "setting": "mice; 0.5 h", "value": "0/4"},
      {"measurement": "Neurotoxicity (animals that exhibit toxicity / animals tested)", "setting": "mice; 1 h", "value": "0/4"},
      {"measurement": "Neurotoxicity (animals that exhibit toxicity / animals tested)", "setting": "mice; 2 h", "value": "0/4"},
      {"measurement": "Neurotoxicity (animals that exhibit toxicity / animals tested)", "setting": "mice; 4 h", "value": "0/4"}
    ]},
    {"smiles": "O=C(NN=C(c1ccc(Cl)cc1)c1ccc(Cl)cc1)Nc1ncc([N+](=O)[O-])s1", "note": "[Compound 19, 1-(Bis(4-chlorophenyl)methylene)-4-(5-nitrothiazol-2-yl)semicarbazide]", "values": [
      {"measurement": "IC50", "setting": "MAO-A; MAO-A In vitro IC50 (µM) ± SEM", "value": "> 100 µM and 50700 µM"},
      {"measurement": "IC50", "setting": "equine serum BuChE", "value": "5.72 ± 0.874", "unit": "µM"},
      {"measurement": "BuChE: fold less active relative to compound 17", "setting": "equine serum BuChE; diaryl analogues", "value": "~238", "unit": "fold"},
      {"measurement": "Neurotoxicity (animals that exhibit toxicity / animals tested)", "setting": "mice; 0.5 h", "value": "0/4"},
      {"measurement": "Neurotoxicity (animals that exhibit toxicity / animals tested)", "setting": "mice; 1 h", "value": "0/4"},
      {"measurement": "Neurotoxicity (animals that exhibit toxicity / animals tested)", "setting": "mice; 2 h", "value": "0/4"},
      {"measurement": "Neurotoxicity (animals that exhibit toxicity / animals tested)", "setting": "mice; 4 h", "value": "0/4"}
    ]},
    {"smiles": "O=C(NN=C1C(=O)Nc2ccc(Br)cc21)Nc1ncc([N+](=O)[O-])s1", "note": "[Compound 21, 1-(5-Bromo-2-oxoindolin-3-ylidene)-4–(5-nitrothiazol-2-yl)semicarbazide]", "values": [
      {"measurement": "Mode of MAO-A inhibition", "setting": "MAO-A; Lineweaver–Burk plots, serotonin", "value": "non-competitively"},
      {"measurement": "Ki", "setting": "MAO-A; kinetic study, non-competitive model, GraphPad Prism, read-out: Ki (dissociation constant) against MAO-A", "value": "17.3 ± 1.79", "unit": "µM"},
      {"measurement": "IC50", "setting": "MAO-A; [1]", "value": "< 100 µM and 57.2 µM"},
      {"measurement": "Reversibility of MAO-A inhibition", "setting": "MAO-A; time-dependent inhibition, pre-incubation 0, 15, 30, 60 min", "value": "reversible"},
      {"measurement": "IC50", "setting": "equine serum BuChE; [2]", "value": "5.37 ± 0.278", "unit": "µM"},
      {"measurement": "BuChE: fold reduction in activity compared to compound 4", "setting": "equine serum BuChE; ratio of IC50 values", "value": "~10.75", "unit": "fold"},
      {"measurement": "BuChE: fold reduction in activity compared to compound 5", "setting": "equine serum BuChE; ratio of IC50 values", "value": "~9.7", "unit": "fold"},
      {"measurement": "Neurotoxicity (animals that exhibit toxicity / animals tested)", "setting": "mice; 0.5 h", "value": "1/4"},
      {"measurement": "Neurotoxicity (animals that exhibit toxicity / animals tested)", "setting": "mice; 1 h", "value": "0/4"},
      {"measurement": "Neurotoxicity (animals that exhibit toxicity / animals tested)", "setting": "mice; 2 h", "value": "0/4"},
      {"measurement": "Neurotoxicity (animals that exhibit toxicity / animals tested)", "setting": "mice; 4 h", "value": "0/4"},
      {"measurement": "Neurotoxicity (verdict in words)", "setting": "mice", "value": "mildly neurotoxic; also recorded: slightly neurotoxic"}
    ]}
  ]
}
